Test results from publication PMC9980915, “MYCMI-7: A Small MYC-Binding Compound that Inhibits MYC: MAX Interaction and Tumor Growth in a MYC-Dependent Manner” (Cancer Research Communications, 2022).

Experiments:
TOP2A = TOP2A (Homo sapiens, UniProt P11388); assay: in vitro TOP2A kDNA decatenation assay; format: biochemical
MYC = MYC (Homo sapiens, UniProt P01106); assay: biochemical
Chain of MYC (P01106 368-454 limits assumed): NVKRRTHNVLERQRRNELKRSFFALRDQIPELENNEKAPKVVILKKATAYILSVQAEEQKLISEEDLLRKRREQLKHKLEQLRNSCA

Chain of TOP2A (P11388 whole entry): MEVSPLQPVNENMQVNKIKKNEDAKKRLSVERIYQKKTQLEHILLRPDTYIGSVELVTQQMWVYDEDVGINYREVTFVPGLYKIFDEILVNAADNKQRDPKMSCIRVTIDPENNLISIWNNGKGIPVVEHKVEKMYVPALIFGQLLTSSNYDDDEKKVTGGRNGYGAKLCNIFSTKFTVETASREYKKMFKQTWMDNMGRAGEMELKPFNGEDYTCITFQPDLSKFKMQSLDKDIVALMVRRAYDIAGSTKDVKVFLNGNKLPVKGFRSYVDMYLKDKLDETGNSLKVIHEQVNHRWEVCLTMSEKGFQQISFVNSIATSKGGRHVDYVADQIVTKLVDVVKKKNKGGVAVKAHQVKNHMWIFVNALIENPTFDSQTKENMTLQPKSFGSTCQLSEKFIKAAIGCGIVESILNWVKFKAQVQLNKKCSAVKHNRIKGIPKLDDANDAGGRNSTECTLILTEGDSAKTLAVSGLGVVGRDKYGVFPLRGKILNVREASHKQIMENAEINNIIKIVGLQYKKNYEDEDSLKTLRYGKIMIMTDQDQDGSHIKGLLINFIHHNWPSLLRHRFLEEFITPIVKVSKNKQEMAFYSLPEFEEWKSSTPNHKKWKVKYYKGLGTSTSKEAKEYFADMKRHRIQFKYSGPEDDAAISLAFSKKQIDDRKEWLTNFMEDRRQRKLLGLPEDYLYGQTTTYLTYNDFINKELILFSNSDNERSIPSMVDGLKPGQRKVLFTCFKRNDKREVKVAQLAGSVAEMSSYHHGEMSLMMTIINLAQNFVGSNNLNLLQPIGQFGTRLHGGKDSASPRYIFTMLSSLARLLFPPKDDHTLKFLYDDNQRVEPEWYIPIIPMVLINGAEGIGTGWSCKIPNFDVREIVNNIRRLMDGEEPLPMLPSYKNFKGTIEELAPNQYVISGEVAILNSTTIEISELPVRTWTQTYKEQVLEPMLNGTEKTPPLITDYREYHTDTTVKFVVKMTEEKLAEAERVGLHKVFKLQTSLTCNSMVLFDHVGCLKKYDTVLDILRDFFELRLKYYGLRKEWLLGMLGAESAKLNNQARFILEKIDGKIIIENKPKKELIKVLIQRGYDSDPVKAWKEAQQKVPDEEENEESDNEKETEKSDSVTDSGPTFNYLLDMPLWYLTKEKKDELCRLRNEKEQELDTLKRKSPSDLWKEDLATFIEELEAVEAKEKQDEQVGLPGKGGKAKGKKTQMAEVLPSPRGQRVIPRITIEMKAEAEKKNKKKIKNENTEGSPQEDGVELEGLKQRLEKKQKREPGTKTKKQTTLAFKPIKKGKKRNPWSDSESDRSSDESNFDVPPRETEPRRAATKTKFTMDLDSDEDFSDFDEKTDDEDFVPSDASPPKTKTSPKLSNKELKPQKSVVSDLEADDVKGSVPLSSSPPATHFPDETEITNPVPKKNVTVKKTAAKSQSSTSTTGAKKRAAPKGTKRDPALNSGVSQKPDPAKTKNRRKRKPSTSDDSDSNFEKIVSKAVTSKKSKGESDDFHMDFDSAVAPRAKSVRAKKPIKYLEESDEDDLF

| Compound | in vitro TOP2A kDNA decatenation assay (TOP2A) | Kd (MYC) [µM] |
| --- | --- | --- |
| COc1cccc2c1C(=O)c1c(O)c3c(c(O)c1C2=O)C[C@@](O)(C(=O)CO)C[C@@H]3O[C@H]1C[C@H](N)[C@H](O)[C@H](C)O1 [doxorubicin, reference compound] | ~ 3 μmol/L |  |
| CCN(CC)CC[n+]1ccc2c(C)c3[nH]c4ccccc4c3c(C)c2c1 [MYCMI-7, 2-(5,11-Dimethyl-6H-25-pyrido[4,3-b]carbazol-2-yl)-N,N-diethylethanamine acetate] | > 10 µmol/L | ~4 |
